Test results as given in patent US20240308995A1, “O-GLYCOPROTEIN-2-ACETAMIDO-2-DEOXY-3-D-GLUCOPYRANOSIDASE INHIBITORS” (BIOGEN MA INC., priority 2018, published 2024).

What was measured:
[1] = Rat Liver Microsome Stability Assay; format: in vitro ADME; conditions: rat liver microsomes, 1 uM compound
P-gp (MDR1) = assay: MDR1-MDCK Efflux Ratio Assay; format: in vitro ADME; conditions: dog, MDCK-MDR1, pH 7.4, MDR1-MDCK cells, 2 hr, pH 7.4; read-out: MDR1-MDCK Efflux Ratio (B-A/A-B)
How it was run: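 Bidirectional (apical↔basolateral) transport across confluent MDR1-MDCK monolayers in HBSS/10 mM HEPES pH 7.4, receiver buffer with 1% BSA; 2 hr at 37° C, 5% CO2. Donor sampled at 0 and 120 min, receiver at 120 min, quantified by LC-MS/MS in triplicate. Papp, efflux ratio and percent recovery calculated.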

[2] = target: OGA (S400 O-GLCNAC), HEK-293T cells transfected with Tau-V5 (Homo sapiens (Human), UniProt O60502); assay: Cellular OGA-Tau MSD Assay; format: cell-based; conditions: HEK-293T cells, Tau-S400-GlcNAc MSD readout
How it was run: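 HEK-293T cells transfected with OGA and Tau-V5 plasmids were treated overnight at 37° C with a 10-point, 3-fold titration from 1 uM. Lysates went onto V5-antibody MSD plates to capture Tau, probed with a Tau O-GlcNAc antibody and read by electrochemiluminescence; IC50 from a 4-parameter fit.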

[3] = target: Recombinant full length human OGA enzyme (Homo sapiens (Human), UniProt O60502); assay: OGA Enzyme Inhibition Biochemical Assay; conditions: 1 nM OGA, 100 μM 4-MUGlcNAc, pH 6.4
How it was run: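 Full-length recombinant human OGA with fluorogenic 4-MUGlcNAc in McIlvaine buffer pH 6.4, 0.01% BSA; 90 min at room temperature, glycine pH 10 quench, fluorescence Ex 355/Em 460 nm. 10-point, 4-fold dilution from 20 μM; 4-parameter variable-slope fit.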

Recombinant full length human OGA enzyme, sequence (O60502 whole entry): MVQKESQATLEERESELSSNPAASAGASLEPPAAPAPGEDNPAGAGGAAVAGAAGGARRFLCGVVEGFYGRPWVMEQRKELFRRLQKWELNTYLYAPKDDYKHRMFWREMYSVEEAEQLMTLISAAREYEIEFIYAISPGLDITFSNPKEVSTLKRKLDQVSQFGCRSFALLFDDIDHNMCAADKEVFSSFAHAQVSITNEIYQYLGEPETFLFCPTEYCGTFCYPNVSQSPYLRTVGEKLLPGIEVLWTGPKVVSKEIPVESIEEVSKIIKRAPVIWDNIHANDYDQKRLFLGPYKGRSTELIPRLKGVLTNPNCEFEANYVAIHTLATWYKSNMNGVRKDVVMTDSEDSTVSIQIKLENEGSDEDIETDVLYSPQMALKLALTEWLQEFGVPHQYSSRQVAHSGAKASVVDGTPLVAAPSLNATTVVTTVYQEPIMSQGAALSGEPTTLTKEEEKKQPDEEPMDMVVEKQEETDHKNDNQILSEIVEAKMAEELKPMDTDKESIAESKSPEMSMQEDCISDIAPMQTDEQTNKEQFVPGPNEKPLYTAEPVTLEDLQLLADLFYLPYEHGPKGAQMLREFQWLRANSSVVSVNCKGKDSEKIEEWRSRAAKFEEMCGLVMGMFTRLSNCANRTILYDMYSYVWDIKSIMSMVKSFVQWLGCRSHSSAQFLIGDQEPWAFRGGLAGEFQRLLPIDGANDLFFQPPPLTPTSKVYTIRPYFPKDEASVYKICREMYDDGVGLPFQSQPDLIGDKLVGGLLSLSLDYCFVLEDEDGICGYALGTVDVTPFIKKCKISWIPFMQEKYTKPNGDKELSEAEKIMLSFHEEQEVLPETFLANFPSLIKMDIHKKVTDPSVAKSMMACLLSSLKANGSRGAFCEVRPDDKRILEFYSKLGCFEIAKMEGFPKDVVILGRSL
OGA (S400 O-GLCNAC), HEK-293T cells transfected with Tau-V5, sequence (O60502 whole entry): as above

RLM % Qh (%) [1] [%] | efflux ratio at 2 h (P-gp (MDR1)) | IC50 [2] [nM] | IC50 [3] [nM] | Compound
34 | 28.6 | 2 | < 1 | COc1ccc(O[C@@H]2C[C@H](C)N(Cc3cnc(NC(C)=O)s3)C2)nn1 [Example 1-68, N-(5-(((2S,4R)-4-((6-methoxypyridazin-3-yl)oxy)-2-methylpyrrolidin-1-yl)methyl)thiazol-2-yl)acetamide]
59 | 6.1 | 3 | < 1 | CC(=O)Nc1ncc(CN2C[C@H](Oc3cnc(C)cn3)C[C@@H]2C)s1 [Example 1-69, N-(5-(((2S,4R)-2-methyl-4-((5-methylpyrazin-2-yl)oxy)pyrrolidin-1-yl)methyl)thiazol-2-yl)acetamide]
76 | 3.5 | 16 | 1.7 | COc1ncnc(O[C@@H]2C[C@H](C)N(Cc3cnc(NC(C)=O)s3)C2)c1C [Example 1-71, N-(5-(((2S,4R)-4-((6-methoxy-5-methylpyrimidin-4-yl)oxy)-2-methylpyrrolidin-1-yl)methyl)thiazol-2-yl)acetamide]
64 | 55.1 | 8 | 7.2 | CC(=O)Nc1ncc(CN2C[C@H](Oc3cc(C)ncc3C)C[C@@H]2C)s1 [Example 1-72, N-(5-(((2S,4R)-4-((2,5-dimethylpyridin-4-yl)oxy)-2-methylpyrrolidin-1-yl)methyl)thiazol-2-yl)acetamide]
57 | 2.9 | 3 | < 1 | COc1cnc(O[C@@H]2C[C@H](C)N(Cc3cnc(NC(C)=O)s3)C2)cn1 [Example 1-73, N-(5-(((2S,4R)-4-((5-methoxypyrazin-2-yl)oxy)-2-methylpyrrolidin-1-yl)methyl)thiazol-2-yl)acetamide]
58 | 6.7 | 2 | < 1 | COc1nc(C)cc(O[C@@H]2C[C@H](C)N(Cc3cnc(NC(C)=O)s3)C2)n1 [Example 1-75, N-(5-(((2S,4R)-4-((2-methoxy-6-methylpyrimidin-4-yl)oxy)-2-methylpyrrolidin-1-yl)methyl)thiazol-2-yl)acetamide]
65 | 6 | 25 | 2.6 | CC(=O)Nc1ncc(CN2C[C@H](Oc3cc(C(C)=O)ncn3)C[C@@H]2C)s1 [Example 1-76]
47 | 4.1 | 6 | 2.4 | CC(=O)Nc1ncc(CN2C[C@H](Oc3cc(F)ncn3)C[C@@H]2C)s1 [Example 1-78, N-(5-(((2S,4R)-4-((6-fluoropyrimidin-4-yl)oxy)-2-methylpyrrolidin-1-yl)methyl)thiazol-2-yl)acetamide]
81 | 1.8 | < 1 | < 1 | CC(=O)Nc1ncc(CN2C[C@H](Oc3cc(C)c(F)cn3)C[C@@H]2C)s1 [Example 1-87, N-(5-(((2S,4R)-4-((5-fluoro-4-methylpyridin-2-yl)oxy)-2-methylpyrrolidin-1-yl)methyl)thiazol-2-yl)acetamide]
54 | 10 | 1 | < 1 | COc1nccc(O[C@@H]2C[C@H](C)N(Cc3sc(NC(C)=O)nc3F)C2)n1 [Example 1-92, N-(4-fluoro-5-(((2S,4R)-4-((2-methoxypyrimidin-4-yl)oxy)-2-methylpyrrolidin-1-yl)methyl)thiazol-2-yl)acetamide]

Further lines, the compound ahead of its results:

Compound | RLM % Qh (%) [1] [%] | efflux ratio at 2 h (P-gp (MDR1)) | IC50 [2] [nM] | IC50 [3] [nM]
CC(=O)Nc1ncc(CN2C[C@H](Oc3ncc(OC(F)F)cn3)C[C@@H]2C)s1 [Example 1-80, N-(5-(((2S,4R)-4-((5-(difluoromethoxy)pyrimidin-2-yl)oxy)-2-methylpyrrolidin-1-yl)methyl)thiazol-2-yl)acetamide] | 65 | 18.1 | < 1 | 1.2
CC(=O)Nc1ncc(CN2C[C@H](Oc3ccnc(C)c3)C[C@@H]2C)s1 [Example 1-82, N-(5-(((2S,4R)-2-methyl-4-((2-methylpyridin-4-yl)oxy)pyrrolidin-1-yl)methyl)thiazol-2-yl)acetamide] | 38 | 16.7 | 2 | < 1
CC(=O)Nc1ncc(CN2C[C@H](Oc3ccc(F)nn3)C[C@@H]2C)s1 [Example 1-83, N-(5-(((2S,4R)-4-((6-fluoropyridazin-3-yl)oxy)-2-methylpyrrolidin-1-yl)methyl)thiazol-2-yl)acetamide] | 16 | 38.6 | 1 | < 1
CC(=O)Nc1nc(F)c(CN2C[C@H](Oc3ccc(F)nc3)C[C@@H]2C)s1 [Example 1-85, N-(4-fluoro-5-(((2S,4R)-4-((6-fluoropyridin-3-yl)oxy)-2-methylpyrrolidin-1-yl)methyl)thiazol-2-yl)acetamide] | 60 | 3.8 | 2 | < 1
CC(=O)Nc1ncc(CN2C[C@H](Oc3ncc(F)cn3)C[C@@H]2C)s1 [Example 1-86, N-(5-(((2S,4R)-4-((5-fluoropyrimidin-2-yl)oxy)-2-methylpyrrolidin-1-yl)methyl)thiazol-2-yl)acetamide] | 26 | 11.2 | < 1 | < 1
COc1cncc(O[C@@H]2C[C@H](C)N(Cc3sc(NC(C)=O)nc3F)C2)n1 [Example 1-88, N-(4-fluoro-5-(((2S,4R)-4-((6-methoxypyrazin-2-yl)oxy)-2-methylpyrrolidin-1-yl)methyl)thiazol-2-yl)acetamide] | 98 | 4.7 | 1 | < 1
COc1cnc(O[C@@H]2C[C@H](C)N(Cc3sc(NC(C)=O)nc3F)C2)nc1 [Example 1-89, N-(4-fluoro-5-(((2S,4R)-4-((5-methoxypyrimidin-2-yl)oxy)-2-methylpyrrolidin-1-yl)methyl)thiazol-2-yl)acetamide] | 66 | 19.7 | < 1 | < 1
CC(=O)Nc1nc(F)c(CN2C[C@H](Oc3ccc(Cl)cn3)C[C@@H]2C)s1 [Example 1-90, N-(5-(((2S,4R)-4-((5-chloropyridin-2-yl)oxy)-2-methylpyrrolidin-1-yl)methyl)-4-fluorothiazol-2-yl)acetamide] | 88 | 1.1 | < 1 | < 1
COc1ccnc(O[C@@H]2C[C@H](C)N(Cc3sc(NC(C)=O)nc3F)C2)n1 [Example 1-91, N-(4-fluoro-5-(((2S,4R)-4-((4-methoxypyrimidin-2-yl)oxy)-2-methylpyrrolidin-1-yl)methyl)thiazol-2-yl)acetamide] | 81 | 9.9 | < 1 | < 1
CC(=O)Nc1nc(F)c(CN2C[C@H](Oc3ncccn3)C[C@@H]2C)s1 [Example 1-93, N-(4-fluoro-5-(((2S,4R)-2-methyl-4-(pyrimidin-2-yloxy)pyrrolidin-1-yl)methyl)thiazol-2-yl)acetamide] | 42 | 14.3 | 2 | < 1
CC(=O)Nc1nc(F)c(CN2C[C@H](Oc3ncccc3F)C[C@@H]2C)s1 [Example 1-94, N-(4-fluoro-5-(((2S,4R)-4-((3-fluoropyridin-2-yl)oxy)-2-methylpyrrolidin-1-yl)methyl)thiazol-2-yl)acetamide] | 91 | 1.8 | 2 | < 1
CC(=O)Nc1nc(F)c(CN2C[C@H](Oc3ncc(Cl)cn3)C[C@@H]2C)s1 [Example 1-95, N-(5-(((2S,4R)-4-((5-chloropyrimidin-2-yl)oxy)-2-methylpyrrolidin-1-yl)methyl)-4-fluorothiazol-2-yl)acetamide] | 72 | 3.6 | 1 | < 1
CC(=O)Nc1nc(F)c(CN2C[C@H](Oc3cc(F)ccn3)C[C@@H]2C)s1 [Example 1-96, N-(4-fluoro-5-(((2S,4R)-4-((4-fluoropyridin-2-yl)oxy)-2-methylpyrrolidin-1-yl)methyl)thiazol-2-yl)acetamide] | 86 | 1.2 | 1 | < 1
CC(=O)Nc1nc(F)c(CN2C[C@H](Oc3ccnc(F)c3)C[C@@H]2C)s1 [Example 1-97, N-(4-fluoro-5-(((2S,4R)-4-((2-fluoropyridin-4-yl)oxy)-2-methylpyrrolidin-1-yl)methyl)thiazol-2-yl)acetamide] | 52 | 3.7 | 3 | < 1
COc1ccc(O[C@@H]2C[C@H](C)N(Cc3sc(NC(C)=O)nc3F)C2)nc1 [Example 1-98, N-(4-fluoro-5-(((2S,4R)-4-((5-methoxypyridin-2-yl)oxy)-2-methylpyrrolidin-1-yl)methyl)thiazol-2-yl)acetamide] | 93 | 2.1 | 1 | < 1
